Experimental data reported in the NIST ThermoML archive (doi:10.1016/j.jct.2012.03.034).
Numbers after ± are expanded uncertainties.

Experiment: xn = mol fraction of the nth substance listed
Conditions: 101 kPa, Liquid; for speed of sound: Linear variable-path acoustic interferometer; for mass density: Vibrating tube method; for viscosity: dual vibrating plate viscometer, AandD Co. Ltd Model SV-10

CC[NH+](CC)CC.O=S(=O)([O-])O [triethylammonium hydrogen sulfate] + CN1CCCC1=O
Conditions	mass density, 298.15 K [kg/m3]	mass density, 303.15 K [kg/m3]	speed of sound, 298.15 K [m/s]	speed of sound, 303.15 K [m/s]	viscosity, 298.15 K [mPa·s]	viscosity, 303.15 K [mPa·s]
x1 = 0.0115	1032.8 ± 0.61	1029.6 ± 0.54	1575 ± 2	1559 ± 2	3.39 ± 0.11	1.09 ± 0.06
x1 = 0.0234	1038.22 ± 0.45	1033.96 ± 0.45	1585 ± 2	1569 ± 2	4.63 ± 0.1	1.26 ± 0.03
x1 = 0.0632	1050.09 ± 0.44	1046.49 ± 0.44	1610 ± 2	1594 ± 2	4.46 ± 0.09	1.97 ± 0.04
x1 = 0.0927	1059.1 ± 0.43	1054.51 ± 0.42	1627 ± 2	1613 ± 2	4.81 ± 0.1	1.09 ± 0.03
x1 = 0.1387	1070.98 ± 0.4	1066.39 ± 0.4	1658 ± 2	1646 ± 2	4.99 ± 0.11	2.15 ± 0.05
x1 = 0.2259	1088.61 ± 0.39	1084.19 ± 0.39	1710 ± 2	1699 ± 2	8.89 ± 0.22	4.28 ± 0.11
x1 = 0.2631	1094.64 ± 0.38	1090.49 ± 0.38	1734 ± 2	1724 ± 2	19.46 ± 0.52	8.71 ± 0.27
x1 = 0.3261	1103.78 ± 0.37	1099.54 ± 0.37	1770 ± 2	1761 ± 2	40.98 ± 0.96	24.33 ± 0.59
x1 = 0.4478	1116.87 ± 0.37	1112.6 ± 0.37	1823 ± 2	1818 ± 2	96.22 ± 2.1	66.28 ± 1.4
x1 = 0.5947	1127.01 ± 0.37	1123.51 ± 0.37	1871 ± 2	1867 ± 2	163.18 ± 3.4	119.65 ± 2.5
x1 = 0.7717	1135 ± 0.37	1132.09 ± 0.37	1893 ± 2	1891 ± 2	229.32 ± 4.8	168.61 ± 3.5
x1 = 0.9017	1139.74 ± 0.37	1137.34 ± 0.37	1885 ± 2	1886 ± 2	245.82 ± 5.1	–
x1 = 0.9497	1141.23 ± 0.37	1139.47 ± 0.37	1879 ± 2	1881 ± 2	242.86 ± 5	–
x1 = 1	1142.89 ± 0.37	1141.83 ± 0.37	1874 ± 2	1871 ± 2	235 ± 5	–
